melting point [°C] | SMILES
82 to 92 | CCOCc1nc2c(N)nc3ccccc3c2n1CC1(NC(=O)OC(C)(C)C)CCCCC1
214 to 216 | O=S(=O)(Nc1cc(Cl)ccc1Cl)c1cc(S(=O)(=O)Nc2cc(Cl)ccc2Cl)c2cc(O)ccc2c1
198 to 202 | COc1ccc(Cn2c(N)c(NC(=O)C(C)(C)OCc3ccccc3)c(=O)[nH]c2=S)cc1OC1CCCC1
152 to 154 | CCCc1ccc(-n2nc(Cl)cc2-c2ccc(S(C)(=O)=O)cc2)cc1N
113 to 116 | N#Cc1ccc(NC(=O)CN2CCC(Cc3ccc(F)cc3)CC2)cc1
260 to 262 | Cc1ccccc1C=C1CCc2c1oc1ccc(C#N)cc1c2=O
98 to 99 | COC(=O)c1ncn(C2CCCCO2)c1CC#N (stereo not drawn)
290 | Cc1c(-c2ccc([N+](=O)[O-])o2)nc(N)n2c(C)nnc12
28 | CCC(C)(C)c1nc(C(C)C)[nH]c1C(C)(C)CC
159 to 161 | O=C(NC1CCN(C2CCCCC2)C1)c1cc([N+](=O)[O-])cc([N+](=O)[O-])c1 (stereo not drawn)
107 | CCC([O-])=C(C(=O)OCc1ccccc1)N1C(=O)CC1[N+](CC)(CC)CC (stereo not drawn)
128 to 130 | CC(C)(C)C(=NO)Nc1ccc(Cl)nn1
132 to 133 | Cc1c(C)c2c(c(C)c1N)C(c1ccc(C(C)C)cc1)C1(CCCC1)O2 (stereo not drawn)
101 to 103 | COC(=O)c1c(OC)cc(C(F)(F)F)nc1C(F)(F)F
156 | Cc1c[nH]n(Cc2ccc(Cl)c(Cl)c2)c1=O
277 to 281 | CC1=N/C(=C\c2c[nH]c3ncccc23)C(=O)N1
176 to 177 | CC(C)C(C(=O)O)N1CCCNC1=O (stereo not drawn)
135 to 136 | O=C1CCCN1C(=O)Oc1ccccc1[N+](=O)[O-]
191 to 193 | CCNC(=S)Nc1ccc(NNC(C)=O)cc1
281 | Nc1cccc(C(=O)Nn2cnnn2)c1
155 to 156 | CCC(NC(=NC#N)Nc1cccnc1)c1ccccc1 (stereo not drawn)
182 to 183 | O=C(Nc1ccc2nc(CN3CCCCC3)ccc2c1)c1ccc(-c2ccc(F)cc2F)nc1
206 to 215 | Clc1ccc2c(c1)SCc1cccnc1C2=C1CCNCC1
155 to 156 | OCc1cn(Cc2ccc(OCc3coc(-c4ccccc4)n3)cc2)nc1-c1cccs1

melting point [°C] | SMILES
199 to 200 | COc1ccc2c(c1)c(O)c(C(=O)Nc1ccccc1)c(=O)n2C
74.6 | CCOC(=O)c1ccc(-c2ccc(C(C)O)cc2)cc1 (single isomer, unassigned; (+))
202 to 204 | CCC(=O)c1cc(SC)cc(CNC(=O)CCl)c1O
156 to 159 | COc1ccc(-c2nnn(Cc3ccc(Cl)cc3Cl)c2N)cc1
123 to 125 | Cc1ccc(-c2cc(Cl)c3cc(Cl)ccc3n2)cc1
190 | O=C(O)Cc1cccc2c(-c3ccccc3Cl)nccc12
32 to 33 | COCc1cnn(-c2c(Cl)cc(C(F)(F)F)cc2Cl)n1
48 to 49 | O=[N+]([O-])c1ccccc1Oc1ccccc1Cl
232 | O=C(Nc1cccc(S(=O)(=O)NC2CC2)c1)c1cnn2c(C(F)(F)F)cc(-c3ccc(C(F)(F)F)cc3)nc12
70 to 71 | COc1cnc2c(c1)c(CCNC(=O)c1ccco1)c1n2CCCO1
72 to 74 | CCc1nn(C2CCCC2)c2cc(-c3ccccc3)ccc12
85 to 86 | Cc1cc2c(c(C)c1N)CCO2
126 to 127 | CC(C)(c1ccncn1)C(O)(Cn1cncn1)c1ccc(F)cc1F (stereo not drawn)
214 | N#Cc1cc(NC(=O)c2cc3ccccc3o2)ccc1N1CCC(CCO)CC1
171 | O=[N+]([O-])c1ccc(NCCNS(=O)(=O)c2ccccc2)cc1
280 | COc1cc2[nH]c(=O)cc(C(F)(F)F)c2cc1NC(C)=O
150 to 151 | CCCC(O)c1c(C)c(NC(=O)CC(C)(C)C)c(C)c2c1OCC2c1ccc(C(C)C)cc1 (stereo not drawn)
77 to 80 | CCCc1c(O)c(C(C)=O)cc(Cl)c1OCCCCCOc1c(C(C)=O)ccc(OCC(=O)O)c1CCC
292 | CCn1cc(C(=O)O)c(=O)c2cc3c(nc21)CCO3
140 | COc1cc(-c2nc3ccccc3n2Cc2ccccc2C)cc(OC)c1OC
206 | CC(C)n1cc(-c2nc(C(N)=O)c(N)nc2-c2ccccc2OC(F)(F)F)ccc1=O
270 | CCOC(=O)c1cn(CC)c2nc3cc(F)c(F)cc3cc2c1=O
150 to 151 | Cn1nc(C=O)c(Br)c1C(C)(C)CNC(=O)c1ccccc1
180 to 182 | COc1ccccc1[C@H](c1cccc2ccccc12)[C@@](C)(C#N)C(=O)N1CCN(c2cccc(Br)c2)CC1

melting point [°C] | SMILES
149 to 151 | CN(C)C=C(C#N)C(=O)c1cc(F)c(F)c(F)c1F
178 to 179 | CC(C)(C)c1cc(NC(=O)Nc2ccc(Cl)c(Cl)c2)[nH]n1
182 to 183 | CCOC(=O)CN(c1ccccc1)[C@H]1c2cc(C#N)ccc2OC(C)(C)[C@@H]1O
183 to 186 | CC(C)(C)[Si](C)(C)OC1CN(c2ccc(N3C[C@H](CO)OC3=O)cc2F)C1
112 to 114 | O=C(Nc1ccc(Oc2ccnc(NCCN3CCOCC3)n2)c2ccccc12)c1cc(F)cc(N2CCOCC2)c1
97 to 100 | COC1CCN(c2cc(NC(=O)OC(C)(C)C)c(NC(=O)CC(=O)c3cccc(C#N)c3)cc2C#Cc2ccccc2)CC1
225 to 226 | CCCOc1ccc(S(=O)(=O)N2CCN(CC)CC2)cc1-c1nc2cc3ncn(Cc4ccccc4Cl)c3cc2c(=O)[nH]1
146 to 147 | CC(C)c1nn(-c2ccc(C(F)(F)F)cn2)cc1CCCOc1c(Br)cccc1CC(=O)O
131 to 132 | COc1cc(COc2nn(-c3ccc(C(F)(F)F)cc3)cc2/C=C/C(=O)OCOC(=O)C(C)(C)C)ccc1OCc1nc(-c2ccccc2)oc1C
139 to 140 | Nc1ccnc(CCCCN2C(=O)c3ccccc3C2=O)n1
91 to 92 | CC1=CC(OC(=O)c2ccccc2)C(O)C(C)(C)CC1=O (stereo not drawn)
188 to 189 | Cc1cccc(Nc2cc(Nc3cccc(O)c3)ncn2)c1
112 to 113 | CC(=O)Oc1cc(/C=C/c2ccc(OC(=O)C(C)(C)Oc3ccc(C(=O)c4ccc(Cl)cc4)cc3)cc2)cc(OC(C)=O)c1
289 to 290 | CC(C)(C)OC(=O)Nc1cc(C(=O)NN)ccn1
226 to 228 | Cc1cc(C)c(Nc2nc(C)ccc2S(=O)(=O)c2ccc(O)cc2)c(C)c1
149 to 150 | CCN(CC)CCNC(=O)c1cc(Cl)c(N)cc1OCC(C)O (stereo not drawn)
177 to 178 | CCCNC(=O)Nc1c(C)c(C)c2c(c1C)C(c1ccc(C(C)C)cc1)CO2 (stereo not drawn)
110 to 112 | CN(CC[C@H]1CC[C@H](C(=O)O)CC1)c1nccc(C(F)(F)F)n1
171 to 172 | COCCCn1ccc2c3c(c(-c4ccccc4Cl)cc21)C(=O)NC3=O
83 to 85 | CC(C)Sc1nc(OS(C)(=O)=O)cs1
80 to 85 | CN1CCC2(CC1)C(=O)N(C)c1ccc(Cl)cc1C(c1ccccc1)N2C (stereo not drawn)
> 260 | COC(=O)Cn1c(=O)c(=O)[nH]c2cc([N+](=O)[O-])c(Cl)cc21
254 | CC12CC(=O)NN=C1c1ccc(C#N)cc1C2 (stereo not drawn)
142 to 147 | CNc1cc(CC(C#N)=CNc2ccccc2)cc(NC)c1Cl

melting point [°C] | SMILES
220 to 228 | COC[C@@H]1C(=O)Nc2ccc(C(F)(F)F)cc2C[C@@H]1c1ccc(OC)cc1 (relative stereo)
208 to 213 | COC(=O)c1ccc2oc(C(=O)C(Cc3ccccc3)NC(=O)Cn3c(-c4ccc(F)cc4)ncc(N)c3=O)nc2c1 (stereo not drawn)
160 | CCOC(=O)Cc1nn(CC(=O)Nc2cc(C(F)(F)F)ccc2Br)c(=O)c2ccccc12
144 to 145 | CC(C)(C)c1nc(-c2ccc(F)cc2)c(-c2ccc(S(C)(=O)=O)cc2)s1
151 to 153 | Cc1nn2c(CCCOc3ccc(NCCC(=O)O)cc3)n[nH]c2c1Cl
118 to 120 | Cc1c2n(c3ccccc13)CCC2O (stereo not drawn)
295 to 300 | CCOC(=O)c1cnc2cc(NC(C)=O)ccc2c1O
82 to 85 | CNC(=O)COC(=O)N1CCN(CCCc2cccc(-c3cccc(Cl)c3)c2)CC1
58 to 63 | COc1ccc(NC(=O)OCC2(COC(=O)Nc3ccc(OC)cc3)CSc3ccccc3C2=O)cc1
164 to 165 | CCC1(Cl)Cc2cc(OC(C)(C)C(=O)O)c(Cl)c(Cl)c2C1=O (stereo not drawn)
156 to 158 | CCOc1cccc(-c2cnn3c(-c4cccc(NC(=O)CC(C)C)c4)ccnc23)c1
122 to 124 | O=C(CCC(=O)N1CCC(c2ccc(Cl)cc2)CC1)c1ccc2c(c1)CNCCC2
225 to 226 | N#Cc1ccc(S(=O)(=O)c2ccc(O)cn2)cc1
92 to 95 | COC(=O)c1cc(Cl)c(N)c2c1OCCCN2
137 to 139 | c1ccc(Nc2nc(-c3cccs3)nc3ccccc23)cc1
61 to 62 | C=CCc1nc(Cl)nc(Cl)c1OC
82 to 84 | CC(=O)c1c(F)ccc(NC2OC(=O)CC(=O)O2)c1F
219 to 220 | COCc1cc(O)c2nc(C)n(C)c2c1
67 | O=C/C=C/c1cc2ccccc2o1
202 to 204 | COc1ccc(N(C(=O)CN2C(=O)C(Cc3nn(Cc4ccccc4)c4ccccc34)(OC)C(=O)Nc3ccccc32)C(C)C)cc1 (stereo not drawn)
253 to 254 | Cc1cc(=O)oc2cc(NC(=O)CO)ccc12
134 to 137 | NS(=O)(=O)OCCOc1ccc(Br)cc1

SMILES | melting point [°C]
CCC1(CC)C(=N)N(c2ccc(C#N)c(C(F)(F)F)c2)C(=S)N1C | 167 to 168
Cc1ccc(C#N)c(C)c1COC(=O)[C@H]1[C@@H](C=C(Cl)C(F)(F)F)C1(C)C (relative stereo) | 98
CCC(=O)c1c(C#N)nn(-c2c(Cl)cc(C(F)(F)F)cc2Cl)c1N | 167 to 169
CN1CCC23c4c5ccc(O)c4OC2C(=O)CCC3(F)C1C5 (stereo not drawn) | 215 to 217
